Results taken from patent US6054435A, “6-O-substituted macrolides having antibacterial activity” (priority 1999, dated 2000).
In brackets after ≈: the same amount, converted by molar mass.

What was measured:
Assay in all cases: in vitro antibacterial activity (MIC), agar dilution
Type in all cases: cell-based
Escherichia coli SS = conditions: organism code RR; BHI agar, 35-37° C., 20 to 24 hours; unit assumed
Procedure: (§1) Representative compounds of the present invention were assayed in vitro for antibacterial activity as follows: Twelve petri dishes containing successive aqueous dilutions of the test compound mixed with 10 mL of sterilized Brain Heart Infusion (BHI) agar (Difco 0418-01-5) were prepared. Each plate was inoculated with 1:100 (or 1:10 for slow-growing strains, such as Micrococcus and Streptococcus) dilutions of up to 32 different microorganisms, using a Steers replicator block. […] In addition, a control plate, using BHI agar containing no test compound, was prepared and incubated at the beginning and end of each test.
(§2) An additional plate containing a compound having known susceptibility patterns for the organisms being tested and belonging to the same antibiotic class as the test compound was also prepared and incubated as a further control, as well as to provide test-to-test comparability.
(§3) After incubation, each plate was visually inspected. The minimum inhibitory concentration (MIC) was defined as the lowest concentration of drug yielding no growth, a slight haze, or sparsely isolated colonies on the inoculum spot as compared to the growth control.

[1] = system: Streptococcus Pneumonia 5649; conditions: organism code ZZA; BHI agar, 35-37° C., 20 to 24 hours; unit assumed
Procedure: as §1, §2, §3

[2] = system: Staphylococcus aureus CMX 642A; conditions: organism code DD; BHI agar, 35-37° C., 20 to 24 hours; unit assumed
Procedure: as §1, §2, §3

Escherichia coli JUHL = conditions: organism code QQ; BHI agar, 35-37° C., 20 to 24 hours; unit assumed
Procedure: as §1, §2, §3

[3] = system: Nocardia Asteroides ATCC9970; conditions: organism code VV; BHI agar, 35-37° C., 20 to 24 hours; unit assumed
Procedure: as §1, §2, §3

[4] = system: Staphylococcus aureus A-5278; conditions: organism code CC; BHI agar, 35-37° C., 20 to 24 hours; unit assumed
Procedure: as §1, §2, §3

[5] = system: Streptococcus pyogenes 930; conditions: organism code MM; BHI agar, 35-37° C., 20 to 24 hours; unit assumed
Procedure: as §1, §2, §3

[6] = system: Streptococcus bovis A-5169; conditions: organism code JJ; BHI agar, 35-37° C., 20 to 24 hours; unit assumed
Procedure: as §1, §2, §3

Candida albicans CCH 442 = conditions: organism code TT; BHI agar, 35-37° C., 20 to 24 hours; unit assumed
Procedure: as §1, §2, §3

[7] = system: Micrococcus luteus ATCC 4698; conditions: organism code PP; BHI agar, 35-37° C., 20 to 24 hours; unit assumed
Procedure: as §1, §2, §3

[8] = system: Haemophilis Influenzae DILL AMP R; conditions: organism code WW; BHI agar, 35-37° C., 20 to 24 hours; unit assumed
Procedure: as §1, §2, §3

[9] = system: Staphylococcus epidermidis 3519; conditions: organism code HH; BHI agar, 35-37° C., 20 to 24 hours; unit assumed
Procedure: as §1, §2, §3

[10] = system: Staphylococcus aureus 1775; conditions: organism code GG; BHI agar, 35-37° C., 20 to 24 hours; unit assumed
Procedure: as §1, §2, §3

[11] = system: Staphylococcus aureus ATCC 6538P; conditions: organism code AA; BHI agar, 35-37° C., 20 to 24 hours; unit assumed
Procedure: as §1, §2, §3

[12] = system: Streptococcus pyogenes PIU 2548; conditions: organism code NN; BHI agar, 35-37° C., 20 to 24 hours; unit assumed
Procedure: as §1, §2, §3

[13] = system: Streptococcus agalactiae CMX 508; conditions: organism code KK; BHI agar, 35-37° C., 20 to 24 hours; unit assumed
Procedure: as §1, §2, §3

[14] = system: Mycobacterium smegmatis ATCC 114; conditions: organism code UU; BHI agar, 35-37° C., 20 to 24 hours; unit assumed
Procedure: as §1, §2, §3

[15] = system: Streptococcus Pneumonia ATCC6303; conditions: organism code XX; BHI agar, 35-37° C., 20 to 24 hours; unit assumed
Procedure: as §1, §2, §3

[16] = system: Streptococcus pyogenes EES61; conditions: organism code LL; BHI agar, 35-37° C., 20 to 24 hours; unit assumed
Procedure: as §1, §2, §3

[17] = system: Enterococcus faecium ATCC 8043; conditions: organism code II; BHI agar, 35-37° C., 20 to 24 hours; unit assumed
Procedure: as §1, §2, §3

[18] = system: Staphylococcus aureus A5177; conditions: organism code BB; BHI agar, 35-37° C., 20 to 24 hours; unit assumed
Procedure: as §1, §2, §3

[19] = system: Micrococcus luteus ATCC 9341; conditions: organism code OO; BHI agar, 35-37° C., 20 to 24 hours; unit assumed
Procedure: as §1, §2, §3

[20] = system: Staphylococcus aureus NCTC10649M; conditions: organism code EE; BHI agar, 35-37° C., 20 to 24 hours; unit assumed
Procedure: as §1, §2, §3

Escherichia coli DC-2 = conditions: organism code SS; BHI agar, 35-37° C., 20 to 24 hours; unit assumed
Procedure: as §1, §2, §3

[21] = system: Streptococcus Pneumonia GYR 1171; conditions: organism code YY; BHI agar, 35-37° C., 20 to 24 hours; unit assumed
Procedure: as §1, §2, §3

[22] = system: Staphylococcus aureus CMX 553; conditions: organism code FF; BHI agar, 35-37° C., 20 to 24 hours; unit assumed
Procedure: as §1, §2, §3

[23] = system: Streptococcus Pneumonia 5979; conditions: organism code ZZ; BHI agar, 35-37° C., 20 to 24 hours; unit assumed
Procedure: as §1, §2, §3

Row | Structure (SMILES) | MIC (Escherichia coli SS) | MIC [1] | MIC [2] | MIC (Escherichia coli JUHL) | MIC [3] | MIC [4] | MIC [5] | MIC [6] | MIC (Candida albicans CCH 442) | MIC [7] | MIC [8] | MIC [9] | MIC [10] | MIC [11] | MIC [12] | MIC [13] | MIC [14] | MIC [15] | MIC [16] | MIC [17] | also measured
1 | CC[C@H]1OC(=O)[C@H](C)[C@@H](O[C@H]2C[C@@](C)(OC)[C@@H](O)[C@H](C)O2)[C@H](C)[C@@H](O[C@@H]2O[C@H](C)C[C@H](N(C)C)[C@H]2O)[C@](C)(O)C[C@@H](C)C(=O)[C@H](C)[C@@H](O)[C@]1(C)O [Ery. A, Erythromycin A, reference compound] | 0.78 µg/mL (≈ 1.06 µM) | 16 µg/mL (≈ 21.8 µM) | 0.39 µg/mL (≈ 0.531 µM) | > 100 µg/mL | 0.1 µg/mL (≈ 0.136 µM) | > 100 µg/mL | > 100 µg/mL | 0.02 µg/mL (≈ 0.0273 µM) | > 100 µg/mL | 0.2 µg/mL (≈ 0.273 µM) | 4 µg/mL (≈ 5.45 µM) | 0.39 µg/mL (≈ 0.531 µM) | > 100 µg/mL | 0.2 µg/mL (≈ 0.273 µM) | 6.2 µg/mL (≈ 8.45 µM) | 0.05 µg/mL (≈ 0.0681 µM) | 3.1 µg/mL (≈ 4.22 µM) | 0.06 µg/mL (≈ 0.0818 µM) | 0.05 µg/mL (≈ 0.0681 µM) | 0.05 µg/mL (≈ 0.0681 µM) | MIC [18]: 3.1 µg/mL (≈ 4.22 µM); MIC [19]: 0.05 µg/mL (≈ 0.0681 µM); MIC [20]: 0.39 µg/mL (≈ 0.531 µM); MIC (Escherichia coli DC-2): > 100 µg/mL; MIC [21]: 0.06 µg/mL (≈ 0.0818 µM); MIC [22]: 0.39 µg/mL (≈ 0.531 µM)
2 | CC[C@H]1OC(=O)[C@H](C)C(=O)[C@H](C)[C@@H](O[C@@H]2O[C@H](C)C[C@H](N(C)C)[C@H]2O)[C@](C)(OCC#Cc2ccc(-c3cncnc3)s2)C[C@@H](C)C(=O)[C@H](C)[C@H]2NC(=O)O[C@@]21C [Example 4] | 0.39 µg/mL (≈ 0.489 µM) | 0.5 µg/mL (≈ 0.627 µM) | 0.1 µg/mL (≈ 0.125 µM) | 50 µg/mL (≈ 62.7 µM) | 0.02 µg/mL (≈ 0.0251 µM) | > 100 µg/mL | 12.5 µg/mL (≈ 15.7 µM) | ≤ 0.005 µg/mL | > 100 µg/mL | 0.05 µg/mL (≈ 0.0627 µM) | 2 µg/mL (≈ 2.51 µM) | 0.1 µg/mL (≈ 0.125 µM) | > 100 µg/mL | 0.1 µg/mL (≈ 0.125 µM) | 0.1 µg/mL (≈ 0.125 µM) | 0.01 µg/mL (≈ 0.0125 µM) | 0.78 µg/mL (≈ 0.979 µM) | 0.03 µg/mL (≈ 0.0376 µM) | 0.01 µg/mL (≈ 0.0125 µM) | 0.02 µg/mL (≈ 0.0251 µM) | MIC [23]: 2 µg/mL (≈ 2.51 µM); MIC [18]: 0.1 µg/mL (≈ 0.125 µM); MIC [19]: 0.01 µg/mL (≈ 0.0125 µM); MIC [20]: 0.1 µg/mL (≈ 0.125 µM); MIC (Escherichia coli DC-2): 50 µg/mL (≈ 62.7 µM); MIC [21]: 0.03 µg/mL (≈ 0.0376 µM); MIC [22]: 0.1 µg/mL (≈ 0.125 µM)
3 | CC[C@H]1OC(=O)[C@H](C)C(=O)[C@H](C)[C@@H](O[C@@H]2O[C@H](C)C[C@H](N(C)C)[C@H]2O)[C@](C)(OCC#Cc2ccc(-c3ncccn3)s2)C[C@@H](C)C(=O)[C@H](C)[C@H]2NC(=O)O[C@@]21C [Example 5] | 0.1 µg/mL (≈ 0.125 µM) | 0.25 µg/mL (≈ 0.314 µM) | 0.05 µg/mL (≈ 0.0627 µM) | 25 µg/mL (≈ 31.4 µM) | 0.01 µg/mL (≈ 0.0125 µM) | > 100 µg/mL | 25 µg/mL (≈ 31.4 µM) | ≤ 0.005 µg/mL | > 100 µg/mL | 0.1 µg/mL (≈ 0.125 µM) | 2 µg/mL (≈ 2.51 µM) | 0.05 µg/mL (≈ 0.0627 µM) | > 100 µg/mL | 0.02 µg/mL (≈ 0.0251 µM) | 0.1 µg/mL (≈ 0.125 µM) | 0.01 µg/mL (≈ 0.0125 µM) | 0.78 µg/mL (≈ 0.979 µM) | 0.03 µg/mL (≈ 0.0376 µM) | ≤ 0.005 µg/mL | 0.02 µg/mL (≈ 0.0251 µM) | MIC [23]: 0.5 µg/mL (≈ 0.627 µM); MIC [18]: 0.05 µg/mL (≈ 0.0627 µM); MIC [19]: 0.01 µg/mL (≈ 0.0125 µM); MIC [20]: 0.05 µg/mL (≈ 0.0627 µM); MIC (Escherichia coli DC-2): 25 µg/mL (≈ 31.4 µM); MIC [21]: 0.03 µg/mL (≈ 0.0376 µM); MIC [22]: 0.02 µg/mL (≈ 0.0251 µM)
